In brackets after ≈: the same amount, converted by molar mass.
Experiments:
Assay in all cases: microbe, parasite or virus in culture
Type in all cases: cell-based
[1] = tested on: M. tuberculosis clinical isolate 14862; conditions: Mycobacterium tuberculosis, read-out: MIC 14862
[2] = tested on: M. tuberculosis clinical isolate 13946; conditions: Mycobacterium tuberculosis, read-out: MIC 13946
[3] = tested on: bedaquiline-resistant strain of M. tuberculosis; conditions: Mycobacterium tuberculosis, read-out: MIC bedaquiline-resistant strain
[4] = tested on: PBTZ169-resistant strain of M. tuberculosis; conditions: Mycobacterium tuberculosis, read-out: MIC PBTZ169-resistant strain

CCOC(=O)NC(=O)c1ccsc1NC(=O)c1ccc(C(=O)N2CCCCC2)cc1 [Compound 23j, Ethyl (2-(4-(Piperidine-1-carbonyl)benzamido)thiophene-3-carbonyl)carbamate] was tested, and the MIC [1] was 0.059 µg/mL (≈ 0.137 µM) and the MIC [2] was 0.082 µg/mL (≈ 0.191 µM).
With CCOC(=O)NC(=O)c1ccsc1NC(=O)c1coc(C(=O)N2CCCCC2)c1 [Compound 24k, Ethyl (2-(5-(Piperidine-1-carbonyl)furan-3-carboxamido)thiophene-3-carbonyl)carbamate] the MIC [1] was 0.23 µg/mL (≈ 0.548 µM) and the MIC [2] was 0.44 µg/mL (≈ 1.05 µM).
With COC(=O)NC(=O)c1ccsc1NC(=O)c1ccc(C(=O)N2CCCCC2)c(F)c1 [Compound 25b, Methyl (2-(3-Fluoro-4-(piperidine-1-carbonyl)benzamido)thiophene-3-carbonyl)carbamate] the MIC [1] was 0.12 µg/mL (≈ 0.277 µM) and the MIC [2] was 0.062 µg/mL (≈ 0.143 µM).
Work on COc1nc2ccc(Br)cc2cc1[C@@H](c1ccccc1)[C@@](O)(CCN(C)C)c1cccc2ccccc12 [bedaquiline, reference compound] yielded an MIC [3] of 2.24 µg/mL (≈ 4.03 µM).
NNC(=O)c1ccncc1 [INH, isoniazid, reference compound] was tested, and the MIC [1] was greater than 10 µg/mL and the MIC [2] was 2.46 µg/mL (≈ 17.9 µM).
For CCOC(=O)NC(=O)c1ccsc1NC(=O)c1nc2ccccc2s1 [TCA1, reference compound], the MIC [1] was 0.48 µg/mL (≈ 1.28 µM) and the MIC [2] was 0.95 µg/mL (≈ 2.53 µM).
O=C(Nc1sccc1C(=O)Nc1nccc(C(F)(F)F)n1)c1ccc(C(=O)N2CCCCC2)cc1 [Compound 25l, 2-(4-(Piperidine-1-carbonyl)benzamido)-N-(4-(trifluoromethyl)pyrimidin-2-yl)thiophene-3-carboxamide] showed an MIC [1] of 0.48 µg/mL (≈ 0.953 µM) and an MIC [2] of 0.94 µg/mL (≈ 1.87 µM).
Compound CCOC(=O)NC(=O)c1ccsc1NC(=O)c1ccc(C(=O)N2CCCCC2)c(F)c1 [Compound 24f, Ethyl (2-(3-Fluoro-4-(piperidine-1-carbonyl)benzamido)thiophene-3-carbonyl)carbamate] has an MIC [1] of 0.031 µg/mL (≈ 0.0693 µM) and an MIC [2] of 0.031 µg/mL (≈ 0.0693 µM).
Work on COC(=O)NC(=O)c1ccsc1NC(=O)c1ccc(C(=O)N2CCCCC2)cc1 [Compound 25a, Methyl (2-(4-(Piperidine-1-carbonyl)benzamido)thiophene-3-carbonyl)carbamate] yielded an MIC [1] of 0.24 µg/mL (≈ 0.578 µM) and an MIC [2] of 0.24 µg/mL (≈ 0.578 µM).
For O=c1nc(N2CCN(CC3CCCCC3)CC2)sc2c([N+](=O)[O-])cc(C(F)(F)F)cc12 [PBTZ169], the MIC [4] was 0.005 µg/mL (≈ 0.011 µM).
CCOC(=O)NC(=O)c1ccsc1NC(=O)c1ccc(C(=O)N2CCCCC2)s1 [Compound 24j, Ethyl (2-(5-(Piperidine-1-carbonyl)thiophene-2-carboxamido)thiophene-3-carbonyl)carbamate] was tested, and the MIC [1] was 0.12 µg/mL (≈ 0.276 µM) and the MIC [2] was 0.12 µg/mL (≈ 0.276 µM).

From article PMC8154581, “Discovery of Novel Thiophene-arylamide Derivatives as DprE1 Inhibitors with Potent Antimycobacterial Activities” (Journal of Medicinal Chemistry, 2021)
